Test results as given in patent publication US12186283B2, “Bismuth-thiol compositions and methods of use” (Microbion Corporation, priority 2018, dated 2025).
Converted amounts (≈) assume the structure as drawn. Read-outs that look alike come from different tables or passages of the source.

Tests used:
[1] = tested on: Enterococcus spp. (E. faecalis, E. faecium); assay: Broth microdilution MIC (Example 11); format: cell-based; conditions: Enterococcus faecium, VRE, E. faecium MMX 485; VRE, vanA, LevR, CipR, EryR; read-out: MIC
[2] = tested on: beta-hemolytic streptococci (S. pyogenes, S. agalactiae); assay: Broth microdilution MIC (Example 11); format: cell-based, Streptococcus pyogenes, Streptococcus agalactiae; conditions: read-out: MIC
P. aeruginosa [3] = assay: Checkerboard FIC assay, BisEDT with CF agents (Example 10); format: cell-based, Pseudomonas aeruginosa; conditions: agent alone, as observed during FIC testing
[4] = tested on: Burkholderia cepacia complex; assay: as above; format: cell-based, Burkholderia spp.; conditions: agent alone, as observed during FIC testing
P. aeruginosa [5] = conditions: P. aeruginosa isolate 103, CLSI QC range in parenthesis, cited from earlier work
P. aeruginosa [6] = assay: Broth microdilution MIC (Example 10)
[7] = tested on: Burkholderia cepacia complex; assay: Broth microdilution MIC (Example 10); conditions: initial MIC testing
[8] = S. agalactiae MMX 3741, ERY^R CC^R
[9] = S. agalactiae MMX 3743, ERY^R CC^R
[10] = S. agalactiae MMX 4077, ERY^R CC^R
[11] = S. agalactiae MMX 4079, ERY^R CC^R Pen^R MEM^R
[12] = S. agalactiae MMX 4086, ERY^R CC^R

For `C[C@H]1COc2c(N3CCN(C)CC3)c(F)cc3c(=O)c(C(=O)O)cn1c23` [Levofloxacin, reference compound], which MIC [1] is on record?
Its MIC is over 64 µg/mL.

And the MIC [2, 8]?
Its MIC is 0.5 µg/mL (≈ 1.38 µM).

What about the MIC [2, 9] of the same compound?
The MIC was 1 µg/mL (≈ 2.77 µM).

And the MIC [2, 10]?
The MIC was 0.5 µg/mL (≈ 1.38 µM).

What about the MIC [2, 11] of the same compound?
The MIC was 1 µg/mL (≈ 2.77 µM).

What about the MIC [2, 12] of the same compound?
Its MIC is 0.5 µg/mL (≈ 1.38 µM).

With `CCC[C@@H]1C[C@@H](C(=O)N[C@@H]([C@H]2O[C@H](SC)[C@H](O)[C@@H](O)[C@H]2O)[C@H](C)Cl)N(C)C1` [clindamycin, reference compound] as the compound, how does the MIC [1] read?
Its MIC is over 32 µg/mL.

And the MIC [2, 8]?
The MIC was over 8 µg/mL.

What about the MIC [2, 9] of the same compound?
Its MIC is over 8 µg/mL.

And the MIC [2, 10]?
Its MIC is over 8 µg/mL.

And the MIC [2, 11]?
The MIC was over 8 µg/mL.

What about the MIC [2, 12] of the same compound?
The MIC was over 8 µg/mL.

Which MIC (P. aeruginosa [3]; P. aeruginosa isolate 6322) does the source give for `NC[C@H]1O[C@H](O[C@H]2[C@H](O)[C@@H](O[C@H]3O[C@H](CO)[C@@H](O)[C@H](N)[C@H]3O)[C@H](N)C[C@@H]2N)[C@H](N)C[C@@H]1O` [TOB] here?
The MIC was 128 µg/mL.

And the MIC (P. aeruginosa [3]; P. aeruginosa isolate 6977)?
Its MIC is 128 µg/mL.

And the MIC (P. aeruginosa [3]; P. aeruginosa isolate 7745)?
The MIC was 0.5 µg/mL.

And the MIC (P. aeruginosa [3]; P. aeruginosa isolate 8798)?
Its MIC is 16 µg/mL.

What about the MIC (P. aeruginosa [3]; P. aeruginosa isolate 9108) of the same compound?
Its MIC is 0.5 µg/mL.

What about the MIC ([4]; B. cenocepacia isolate 0548) of the same compound?
The MIC was 32 µg/mL.

And the MIC ([4]; B. cenocepacia isolate 0813)?
The MIC was 256 µg/mL.

What about the MIC ([4]; B. cepacia isolate 1793) of the same compound?
Its MIC is 16 µg/mL.

What about the “MIC, CLSI QC range” value (P. aeruginosa [5]; Table 24) of the same compound?
The value was “(0.25-1) μg/mL”.

And the “MIC, CLSI QC range” value (P. aeruginosa [5]; Table 26)?
Its value is “(0.25-1) μg/mL”.

And the MIC (P. aeruginosa [6]; P. aeruginosa isolate 103 (ATCC 25922), QC strain, initial MIC testing)?
Its MIC is 1 µg/mL (≈ 2.14 µM).

And the MIC (P. aeruginosa [6]; P. aeruginosa isolate 103 (ATCC 25922), during FIC testing, each agent tested alone for QC, one replicate)?
The MIC was 1 µg/mL.

What about the MIC (P. aeruginosa [6]; P. aeruginosa isolate 1497 (TOB-R, AMK-R, CIP-I, AZT-R, COL-R), initial MIC testing) of the same compound?
Its MIC is 16 µg/mL (≈ 34.2 µM).

And the MIC (P. aeruginosa [6]; P. aeruginosa isolate 1530 (TOB-R, AMK-R, CIP-R), initial MIC testing)?
Its MIC is 32 µg/mL (≈ 68.4 µM).

What about the MIC (P. aeruginosa [6]; P. aeruginosa isolate 1553 (TOB-R, AMK-R, CIP-R), initial MIC testing) of the same compound?
The MIC was over 256 µg/mL.

And the MIC (P. aeruginosa [6]; P. aeruginosa isolate 6322 (MEM-R, TOB-R, AMK-R, CIP-R, AZT-R), initial MIC testing)?
Its MIC is 128 µg/mL (≈ 274 µM).

And the MIC (P. aeruginosa [6]; P. aeruginosa isolate 6977 (MEM-I, TOB-R, CIP-R, AZT-I), initial MIC testing)?
Its MIC is 128 µg/mL (≈ 274 µM).

And the MIC (P. aeruginosa [6]; P. aeruginosa isolate 7745 (MEM-R, CIP-R, AZT-R), initial MIC testing)?
Its MIC is 0.5 µg/mL (≈ 1.07 µM).

What about the MIC (P. aeruginosa [6]; P. aeruginosa isolate 7754 (MEM-R, TOB-R, CIP-R, AZT-I), initial MIC testing) of the same compound?
Its MIC is 32 µg/mL (≈ 68.4 µM).

And the MIC (P. aeruginosa [6]; P. aeruginosa isolate 7762 (MEM-I, CIP-I), initial MIC testing)?
Its MIC is 1 µg/mL (≈ 2.14 µM).

And the MIC (P. aeruginosa [6]; P. aeruginosa isolate 7871 (MEM-R, AZT-I), initial MIC testing)?
The MIC was 0.5 µg/mL (≈ 1.07 µM).

And the MIC (P. aeruginosa [6]; P. aeruginosa isolate 7874, initial MIC testing)?
The MIC was 0.5 µg/mL (≈ 1.07 µM).

And the MIC (P. aeruginosa [6]; P. aeruginosa isolate 7886 (MEM-R, CIP-R, AZT-R), initial MIC testing)?
Its MIC is 1 µg/mL (≈ 2.14 µM).

What about the MIC (P. aeruginosa [6]; P. aeruginosa isolate 8797 (MEM-R, TOB-R, AMK-R, CIP-R, AZT-R, COL-R), initial MIC testing) of the same compound?
Its MIC is over 256 µg/mL.

And the MIC (P. aeruginosa [6]; P. aeruginosa isolate 8798 (MEM-R, TOB-R, AMK-R, CIP-R, AZT-R, COL-R), initial MIC testing)?
Its MIC is 32 µg/mL (≈ 68.4 µM).

And the MIC (P. aeruginosa [6]; P. aeruginosa isolate 9108 (CIP-R, AZT-I), initial MIC testing)?
The MIC was 0.5 µg/mL (≈ 1.07 µM).

And the MIC ([7]; B. cenocepacia isolate 0548 (CIP-R))?
Its MIC is 64 µg/mL (≈ 137 µM).

And the MIC ([7]; B. cenocepacia isolate 0813 (CPI-I))?
Its MIC is 256 µg/mL (≈ 548 µM).

What about the MIC ([7]; B. cepacia isolate 0546) of the same compound?
The MIC was 64 µg/mL (≈ 137 µM).

And the MIC ([7]; B. cepacia isolate 1793)?
The MIC was 64 µg/mL (≈ 137 µM).

What about the MIC ([7]; B. cepacia isolate 9040) of the same compound?
The MIC was 8 µg/mL (≈ 17.1 µM).

What about the MIC ([7]; B. multivorans isolate 1791) of the same compound?
The MIC was 64 µg/mL (≈ 137 µM).

What about the MIC ([7]; B. multivorans isolate 5665 (CIP-I)) of the same compound?
Its MIC is 64 µg/mL (≈ 137 µM).

And the MIC ([7]; B. multivorans isolate 8952 (CIP-I))?
The MIC was 16 µg/mL (≈ 34.2 µM).
